What all share (test): Glasshouse assay for herbicidal activity (pre- and post-emergence), percentage phytotoxicity
Format in all cases: in vivo

The test system of assay [1] is Echinochloa crus-galli (ECHCG). Conditions: Echinochloa crus-galli. In outline:
(§1)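 Visual phytotoxicity score, 0% = undamaged to 100% = total kill, read 20 days after treatment for PRE and 15 days for POST. Pots of standard soil; treatment at day 1 (PRE) or roughly day 12 (POST). Glasshouse: 16 h photoperiod, 65% RH, 24/18 or 20/16 °C by climate type.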

Assay [2] has as its system Lolium perenne (LOLPE). As to conditions: Lolium perenne. In short, it runs like this: as §1
The subject of assay [3] is Alopecurus myosuroides (ALOMY). As to conditions: Alopecurus myosuroides. In outline:
as §1

Assay [4] concerns Avena fatua (AVEFA). As to conditions: Avena fatua. In short, it runs like this: as §1
Where [5] appears, read: post-emergence, 360 h, 250 g/ha, post-emergence, 15 DAA, visual assessment (100%=total damage, 0%=no damage), read-out: Post-emergence herbicidal activity (percentage phytotoxicity) ECHCG POST.
The mark [6] stands for this setting: pre-emergence, 480 h, 250 g/ha, pre-emergence, 20 DAA, visual assessment (100%=total damage, 0%=no damage), read-out: Pre-emergence herbicidal activity (percentage phytotoxicity) ECHCG PRE.
Where [7] appears, read: post-emergence, 360 h, 250 g/ha, post-emergence, 15 DAA, visual assessment (100%=total damage, 0%=no damage), read-out: Post-emergence herbicidal activity (percentage phytotoxicity) LOLPE POST.
The mark [8] stands for this setting: pre-emergence, 480 h, 250 g/ha, pre-emergence, 20 DAA, visual assessment (100%=total damage, 0%=no damage), read-out: Pre-emergence herbicidal activity (percentage phytotoxicity) LOLPE PRE.
Setting [9] is: post-emergence, 360 h, 250 g/ha, post-emergence, 15 DAA, visual assessment (100%=total damage, 0%=no damage), read-out: Post-emergence herbicidal activity (percentage phytotoxicity) ALOMY POST.
Setting [10] is: pre-emergence, 480 h, 250 g/ha, pre-emergence, 20 DAA, visual assessment (100%=total damage, 0%=no damage), read-out: Pre-emergence herbicidal activity (percentage phytotoxicity) ALOMY PRE.
Setting [11] is: post-emergence, 360 h, 250 g/ha, post-emergence, 15 DAA, visual assessment (100%=total damage, 0%=no damage), read-out: Post-emergence herbicidal activity (percentage phytotoxicity) AVEFA POST.
Setting [12] is: pre-emergence, 480 h, 250 g/ha, pre-emergence, 20 DAA, visual assessment (100%=total damage, 0%=no damage), read-out: Pre-emergence herbicidal activity (percentage phytotoxicity) AVEFA PRE.
[13] abbreviates: post-emergence, 360 h, Rate 250 g/ha, post-emergence, assessed visually 15 DAA, 100%=total damage, 0%=no damage, read-out: Post-emergence herbicidal activity (percentage phytotoxicity) ECHCG POST.
Where [14] appears, read: pre-emergence, 480 h, Rate 250 g/ha, pre-emergence, assessed visually 20 DAA, 100%=total damage, 0%=no damage, read-out: Pre-emergence herbicidal activity (percentage phytotoxicity) ECHCG PRE.
Where [15] appears, read: post-emergence, 360 h, Rate 250 g/ha, post-emergence, assessed visually 15 DAA, 100%=total damage, 0%=no damage, read-out: Post-emergence herbicidal activity (percentage phytotoxicity) LOLPE POST.
Where [16] appears, read: pre-emergence, 480 h, Rate 250 g/ha, pre-emergence, assessed visually 20 DAA, 100%=total damage, 0%=no damage, read-out: Pre-emergence herbicidal activity (percentage phytotoxicity) LOLPE PRE.
Where [17] appears, read: post-emergence, 360 h, Rate 250 g/ha, post-emergence, assessed visually 15 DAA, 100%=total damage, 0%=no damage, read-out: Post-emergence herbicidal activity (percentage phytotoxicity) ALOMY POST.
Where [18] appears, read: pre-emergence, 480 h, Rate 250 g/ha, pre-emergence, assessed visually 20 DAA, 100%=total damage, 0%=no damage, read-out: Pre-emergence herbicidal activity (percentage phytotoxicity) ALOMY PRE.
[19] abbreviates: post-emergence, 360 h, Rate 250 g/ha, post-emergence, assessed visually 15 DAA, 100%=total damage, 0%=no damage, read-out: Post-emergence herbicidal activity (percentage phytotoxicity) AVEFA POST.
Where [20] appears, read: pre-emergence, 480 h, Rate 250 g/ha, pre-emergence, assessed visually 20 DAA, 100%=total damage, 0%=no damage, read-out: Pre-emergence herbicidal activity (percentage phytotoxicity) AVEFA PRE.
Setting [21] is: post-emergence, 360 h, POST-emergence, rate 250 g/ha, visual score 15 DAA (100%=total damage, 0%=no damage), read-out: Post-emergence herbicidal activity (percentage phytotoxicity) ECHCG POST.
Where [22] appears, read: pre-emergence, 480 h, PRE-emergence, rate 250 g/ha, visual score 20 DAA (100%=total damage, 0%=no damage), read-out: Pre-emergence herbicidal activity (percentage phytotoxicity) ECHCG PRE.
[23] abbreviates: post-emergence, 360 h, POST-emergence, rate 250 g/ha, visual score 15 DAA (100%=total damage, 0%=no damage), read-out: Post-emergence herbicidal activity (percentage phytotoxicity) LOLPE POST.
The mark [24] stands for this setting: pre-emergence, 480 h, PRE-emergence, rate 250 g/ha, visual score 20 DAA (100%=total damage, 0%=no damage), read-out: Pre-emergence herbicidal activity (percentage phytotoxicity) LOLPE PRE.
The mark [25] stands for this setting: post-emergence, 360 h, POST-emergence, rate 250 g/ha, visual score 15 DAA (100%=total damage, 0%=no damage), read-out: Post-emergence herbicidal activity (percentage phytotoxicity) ALOMY POST.
The mark [26] stands for this setting: pre-emergence, 480 h, PRE-emergence, rate 250 g/ha, visual score 20 DAA (100%=total damage, 0%=no damage), read-out: Pre-emergence herbicidal activity (percentage phytotoxicity) ALOMY PRE.
Setting [27] is: post-emergence, 360 h, POST-emergence, rate 250 g/ha, visual score 15 DAA (100%=total damage, 0%=no damage), read-out: Post-emergence herbicidal activity (percentage phytotoxicity) AVEFA POST.
Setting [28] is: pre-emergence, 480 h, PRE-emergence, rate 250 g/ha, visual score 20 DAA (100%=total damage, 0%=no damage), read-out: Pre-emergence herbicidal activity (percentage phytotoxicity) AVEFA PRE.

Here are results for 11 compounds from patent US10206394B2, “Herbicidal compounds” (Syngenta Participations AG, priority 2014, dated 2019).

Read-outs that look alike come from different tables or passages of the source.

`C#CCN(CC#C)C(=O)CC1CC(=O)C(c2c(C)cc(C)cc2C)C1=O` (stereo not shown) [Compound B45]: the pest or weed control at 250 g/ha amounted to 80% in assay [1] (setting [5]); 60% in assay [1] (setting [6]); 80% in assay [2] (setting [7]); 80% in assay [2] (setting [8]); 80% in assay [3] (setting [9]); 70% in assay [3] (setting [10]). Besides, the pest or weed control at 250 g/ha in assay [4] (setting [11]) turned out to be 80%; in assay [4] (setting [12]), 10%.

In the case of `Cc1cc(C)c(C2C(=O)CC(CC(=O)NC(C)c3ccc(F)cc3)C2=O)c(C)c1` (stereo not shown) [Compound A93], the pest or weed control at 250 g/ha in assay [1] (setting [13]) was 70%; in assay [1] (setting [14]), 60%; in assay [2] (setting [15]), 80%; in assay [2] (setting [16]), 90%; in assay [3] (setting [17]) it was 100%; in assay [3] (setting [18]) it was 90%. Moreover, the pest or weed control at 250 g/ha is 40% in assay [4] (setting [19]) and 20% in assay [4] (setting [20]).

Consider `Cc1cc(-c2ccc(Cl)cn2)cc(C)c1C1C(=O)CC(CC(=O)NCc2ncccc2Cl)C1=O` (stereo not shown) [Compound A132], for which the pest or weed control at 250 g/ha in assay [1] (setting [13]) came to 100%; in assay [1] (setting [14]), 100%; in assay [2] (setting [15]), 100%; in assay [2] (setting [16]) it was 90%; in assay [3] (setting [17]) it was 100%; in assay [3] (setting [18]), 90%. In addition, the pest or weed control at 250 g/ha in assay [4] (setting [19]) worked out at 100%; in assay [4] (setting [20]), 90%.

On to `CCNC(=O)CC1CC(=O)C(c2c(C)cc(-c3ccc(Br)cn3)cc2C)C1=O` (stereo not shown) [Compound B323], for which the pest or weed control at 250 g/ha in assay [1] (setting [21]), in assay [1] (setting [22]), in assay [2] (setting [23]), in assay [2] (setting [24]), in assay [3] (setting [25]) and in assay [3] (setting [26]) was 100% throughout. The values for the pest or weed control at 250 g/ha in assay [4] (setting [27]) and in assay [4] (setting [28]) were 100% and 90%, respectively.

As for `Cc1cc(-c2ncc(F)cc2F)cc(C)c1C1C(=O)CC(CC(=O)NCc2ccc(C#N)cc2)C1=O` (stereo not shown) [Compound B199], the pest or weed control at 250 g/ha in assay [1] (setting [21]) was 100%; in assay [1] (setting [22]) it was 50%; in assay [2] (setting [23]), 90%; in assay [2] (setting [24]), 70%; in assay [3] (setting [25]), 100%; in assay [3] (setting [26]), 80%. Further, the results for the pest or weed control at 250 g/ha in assay [4] (setting [27]) and in assay [4] (setting [28]) were 100% and 60%, respectively.

`Cc1ccsc1CNC(=O)CC1CC(=O)C(c2c(C)cc(-c3ncc(Cl)cc3F)cc2C)C1=O` (stereo not shown) [Compound A131]: the pest or weed control at 250 g/ha in assay [1] (setting [13]) turned out to be 100%; in assay [1] (setting [14]), 100%; in assay [2] (setting [15]) it was 100%; in assay [2] (setting [16]), 70%; in assay [3] (setting [17]), 90%; in assay [3] (setting [18]), 40%. The figures for the pest or weed control at 250 g/ha in assay [4] (setting [19]) and in assay [4] (setting [20]) were 100% and 50%, respectively.

Consider `Cc1cc(-c2ncc(Cl)cc2F)cc(C)c1C1C(=O)CC(CC(=O)NCc2cccc(Cl)c2)C1=O` (stereo not shown) [Compound A117], for which the pest or weed control at 250 g/ha was 100% in assay [1] (setting [13]); 100% in assay [1] (setting [14]); 100% in assay [2] (setting [15]); 90% in assay [2] (setting [16]); 90% in assay [3] (setting [17]); 70% in assay [3] (setting [18]). In addition, the results for the pest or weed control at 250 g/ha in assay [4] (setting [19]) and in assay [4] (setting [20]) were 100% and 70%, respectively.

Consider `C=CCCNC(=O)CC1CC(=O)C(c2c(C)cc(C)cc2C)C1=O` (stereo not shown) [Compound A94], for which the pest or weed control at 250 g/ha stood at 80% in assay [1] (setting [13]); 60% in assay [1] (setting [14]); 90% in assay [2] (setting [16]); 90% in assay [3] (setting [18]); 20% in assay [4] (setting [20]).

On to `CC#Cc1cc(C)c(C2C(=O)CC(CC(=O)NC3CCC3)C2=O)c(C)c1` (stereo not shown) [Compound A81], for which the pest or weed control at 250 g/ha in assay [1] (setting [13]) was found to be 100%; in assay [1] (setting [14]), 100%; in assay [2] (setting [15]), 90%; in assay [2] (setting [16]) it was 100%; in assay [3] (setting [17]) it was 90%; in assay [3] (setting [18]) it was 100%. For the same compound, the pest or weed control at 250 g/ha in assay [4] (setting [19]) and in assay [4] (setting [20]) was 100% in each case.

As to `CCNC(=O)CC1CC(=O)C(c2c(C)cc(-c3ncc(Cl)cc3F)cc2C)C1=O` (stereo not shown) [Compound B103], the pest or weed control at 250 g/ha in assay [1] (setting [5]), in assay [1] (setting [6]), in assay [2] (setting [7]), in assay [2] (setting [8]), in assay [3] (setting [9]) and in assay [3] (setting [10]) was 100% throughout. Further, the pest or weed control at 250 g/ha was 100% in assay [4] (setting [11]) and 90% in assay [4] (setting [12]).

For the compound `C#CC(C)(C)NC(=O)CC1CC(=O)C(c2c(C)cc(Br)cc2C)C1=O` (stereo not shown) [Compound B127], the pest or weed control at 250 g/ha in assay [1] (setting [5]) was 100%; in assay [1] (setting [6]), 70%; in assay [2] (setting [7]) it was 90%; in assay [2] (setting [8]), 70%; in assay [3] (setting [9]) it was 90%; in assay [3] (setting [10]) it was 90%. The pest or weed control at 250 g/ha came out at 100% in assay [4] (setting [11]) and 80% in assay [4] (setting [12]).
